Values after ≈ are worked out from the molar mass of the structure shown.
Legend:
[1] = test system: Mycobacterium tuberculosis; test: Anti-mycobacterial activity against Mycobacterium tuberculosis H37Rv; assay type: functional
[2] = Selectivity index, ratio of CC50 for cytotoxicity in African green monkey Vero cells to MIC for anti-mycobacterial activity against Mycobacterium tuberculosis H37Rv; assay type: toxicity, cell-based; conditions: read-out: Selectivity Index
[3] = test system: Mycobacterium tuberculosis; test: Potency index, ratio of MIC for ciprofloxacin to MIC for test compound for anti-mycobacterial activity against Mycobacterium tuberculosis H37Rv; assay type: functional
[4] = Cytotoxicity in African green monkey Vero cells; assay type: cell-based; conditions: chlorocebus sabaeus

SMILES	MIC [1]	selectivity ratio [2]	Ratio [3]	CC50 [4]
O=C1C(=O)N(Cc2cn(CC(=O)N3CCN(c4cc5c(cc4F)c(=O)c(C(=O)O)cn5C4CC4)CC3)nn2)c2ccccc21	0.5 mg/L (≈ 0.834 µM)	32	2	16 mg/L (≈ 26.7 µM)
CO/N=C1/C(=O)N(Cc2cn(CC(=O)N3CCN(c4cc5c(cc4F)c(=O)c(C(=O)O)cn5C4CC4)CC3)nn2)c2c(F)cccc21	32 mg/L (≈ 49.5 µM)	1	–	32 mg/L (≈ 49.5 µM)
CCO/N=C1/C(=O)N(Cc2cn(CC(=O)N3CCN(c4cc5c(cc4F)c(=O)c(C(=O)O)cn5C4CC4)CC3)nn2)c2ccc(C)cc21	32 mg/L (≈ 48.7 µM)	1	–	32 mg/L (≈ 48.7 µM)
O=C1C(=O)N(Cc2cn(CC(=O)N3CCN(c4cc5c(cc4F)c(=O)c(C(=O)O)cn5C4CC4)CC3)nn2)c2c(F)cccc21	4 mg/L (≈ 6.48 µM)	2	–	8 mg/L (≈ 13 µM)
CCO/N=C1/C(=O)N(Cc2cn(CC(=O)N3CCN(c4cc5c(cc4F)c(=O)c(C(=O)O)cn5C4CC4)CC3)nn2)c2ccc(F)cc21	16 mg/L (≈ 24.2 µM)	0.5	–	8 mg/L (≈ 12.1 µM)
CCO/N=C1/C(=O)N(Cc2cn(CC(=O)N3CCN(c4cc5c(cc4F)c(=O)c(C(=O)O)cn5C4CC4)CC3)nn2)c2ccccc21	32 mg/L (≈ 49.8 µM)	2	–	64 mg/L (≈ 99.6 µM)
CO/N=C1/C(=O)N(Cc2cn(CC(=O)N3CCN(c4cc5c(cc4F)c(=O)c(C(=O)O)cn5C4CC4)CC3)nn2)c2ccc(F)cc21	8 mg/L (≈ 12.4 µM)	8	–	64 mg/L (≈ 99 µM)
CO/N=C1/C(=O)N(Cc2cn(CC(=O)N3CCN(c4cc5c(cc4F)c(=O)c(C(=O)O)cn5C4CC4)CC3)nn2)c2ccccc21	8 mg/L (≈ 12.7 µM)	16	–	128 mg/L (≈ 204 µM)
O=C1C(=O)N(Cc2cn(CC(=O)N3CCN(c4cc5c(cc4F)c(=O)c(C(=O)O)cn5C4CC4)CC3)nn2)c2ccc(F)cc21	1 mg/L (≈ 1.62 µM)	32	–	32 mg/L (≈ 51.8 µM)
CO/N=C1/C(=O)N(Cc2cn(CC(=O)N3CCN(c4cc5c(cc4F)c(=O)c(C(=O)O)cn5C4CC4)CC3)nn2)c2ccc(C)cc21	32 mg/L (≈ 49.8 µM)	0.25	–	8 mg/L (≈ 12.4 µM)
Cc1ccc2c(c1)C(=O)C(=O)N2Cc1cn(CC(=O)N2CCN(c3cc4c(cc3F)c(=O)c(C(=O)O)cn4C3CC3)CC2)nn1	1 mg/L (≈ 1.63 µM)	16	–	16 mg/L (≈ 26.1 µM)
CCO/N=C1/C(=O)N(Cc2cn(CC(=O)N3CCN(c4cc5c(cc4F)c(=O)c(C(=O)O)cn5C4CC4)CC3)nn2)c2c(F)cccc21	32 mg/L (≈ 48.4 µM)	0.5	–	16 mg/L (≈ 24.2 µM)
O=C(O)c1cn(C2CC2)c2cc(N3CCNCC3)c(F)cc2c1=O [CIPROFLOXACIN]	1 mg/L (≈ 3.02 µM)	128	–	–
NNC(=O)c1ccncc1 [ISONIAZID]	0.12 mg/L (≈ 0.875 µM)	512	–	64 mg/L (≈ 467 µM)
CO[C@H]1/C=C/O[C@@]2(C)Oc3c(C)c(O)c4c(O)c(c(/C=N/N5CCN(C)CC5)c(O)c4c3C2=O)NC(=O)/C(C)=C\C=C\[C@H](C)[C@H](O)[C@@H](C)[C@@H](O)[C@@H](C)[C@H](OC(C)=O)[C@@H]1C [RIFAMPIN]	0.25 mg/L (≈ 0.304 µM)	512	–	128 mg/L (≈ 156 µM)
